According to patent US10307418B2, “Azole pharmaceutical formulations for parenteral administration and methods for preparing and using the same as treatment of diseases sensitive to azole compounds” (Platform Brightworks Two, Ltd., priority 2010, dated 2019):
≈ marks a conversion by molar mass, not a printed value. Where two headings read alike, the source gives them in different places.

Experiments:
[1] = Maximum solubility of ITZA and azole analogues in solvents (HPLC); type: physicochemical; conditions: for solubility at 30 min: organic solvent or mixture, thermodynamic from solid
Procedure: ITZA and its analogues were dissolved in various solvents incubated at 37° C. for 30 minutes, cooled down to room temperature, centrifuged at 14,000 rpm for 1 min. The supernatant was analyzed using HPLC to determine the maximum solubility of ITZA and its azole analogues.
In a first step the maximum ITZA solubility in various single solvents was determined. To this end, ITZA and its analogs were dissolved in various solvents, incubated at 37° C. for 30 minutes, cooled down to room temperature, centrifuged at 14,000 rpm for 1 min. The supernatant was analyzed using HPLC to determine the maximum solubility of the respective agent.
The solubility of ITZA was determined in several individual vehicles. Briefly, a known amount of ITZA drug, formulated as a powder (Sigma Inc., St Louis, Mo.), was equilibrated in the respective solvent at RT over 1-4 hours. An aliquot was removed, filtered, and prepared for HPLC to determine maximum solubility at room temperature. Based on the ITZA solubility in each vehicle, different solvents were mixed according to the cosolvency principle in an attempt to arrive at an enhanced stable solubility. […] The stock formulation was then diluted with a final diluent, i.e. NS or D5W or DlOW, to yield a stable use-formulation. The desired range of the final use-formulation was between 1 and 5 mg/mL, as it would result in a final volume that could be safely and conveniently infused intravascularly.
An excess of ITZA as a powder was added to a multitude of chemical solvents (Table 1) at RT. Each mixture was intermittently vortexed, placed in a dark environment and checked visually for up to 4 hours for evidence of solubilization. Following centrifugation to remove solid particles, small samples were withdrawn after consecutive time intervals and the ITZA concentration was determined by HPLC as described.

[2] = system: Candida cruzei (ATCC strain 6258); assay: Yeast susceptibility test, MIC (CLSI standard); type: cell-based; conditions: tested range 38 μg/mL to 0.03 μg/mL, read out at 24 hours, average of three experiments
Procedure: (§1) Briefly, susceptibility tests were set-up using a standardized methodology (CLSI […] standard). Drugs were diluted into RPMI-Mops medium (Yeast One Broth (Sensititer, product Y3462, Trek Diagnostic Systems, Cleveland, Ohio) Sensititer Lot number 151416SA-expiration date 2011-01). Two different strains of yeast were tested, the standardized evaluation/read out was performed at 24 hours after the start of each culture. The tests were repeated twice and all MIC (minimum inhibitory concentration) values are reported as an average of the three experiments.

Candida parapsilosis = assay: Yeast susceptibility test, MIC (CLSI standard); type: cell-based; conditions: tested range 38 μg/mL to 0.03 μg/mL, read out at 24 hours, average of three experiments
Procedure: as §1

[3] = system: Aspergillus fumigatus (Clinical Lab isolate); assay: Mold susceptibility test, MIC; type: cell-based; conditions: tested range 75 μg/mL to 0.07 μg/mL, read out at 48 hrs
Procedure: (§2) Two hyaline molds were tested with a standard read out at 48 hrs:
(§3) Tested drug range: 75 μg/mL to 0.07 μg/mL
as §1

[4] = system: Zygomycete (Clinical Lab isolate, MDACC); assay: Extended mold testing, MIC (CLSI M38A); type: cell-based; conditions: H3 final use-formulation, range 75 μg/mL to 0.07 μg/mL, 48 hr
Source text: (§4) To further determine the antifungal activity of the compounds in the new formulation systems we investigated the efficacy of the various agents against additional strains of mucor and Aspergillus (9/-16-9/20/2010) (The Rhizomucor was a clinical isolate from a patient isolate) and the Aspergillus fumigatus (ATCC strain 90906) used was a repeat from the previously described experiment. Again, the susceptibility tests were set-up using the standardized test method (CLSI M38A). The used drugs were provided in the described H3 final use-formulation that has been previously described. All drugs were diluted in RPMI-Mops medium (YeastOne, Sensititer Lot 151416SA, expiration date January 2011).
As before two different molds were tested with a standard read out at 48 hr: • Drug dilution range 75 μg/mL to 0.07 μg/mL. • Aspergillus fumigatus (ATCC strain 90906) Zygomycete (Clinical Lab isolate, MDACC)

[5] = system: Aspergillus fumigatus (ATCC strain 90906); assay: Mold susceptibility test, MIC (CLSI M38A); type: cell-based
Procedure: as §2, §3, §4
As before two different molds were tested with a standard read out at 48 hr: • Drug dilution range 75 μg/mL to 0.07 μg/mL. • Aspergillus fumigatus (ATCC strain 90906) Zygomycete (Clinical Lab isolate, MDACC) […]

[6] = solvent H3D (no benzyl alcohol), single determination, read-out: Azole solubility, [Drug] mg/mL
[7] = solvent H3D (no benzyl alcohol), read-out: Azole solubility, Average mg/mL
[8] = solvent H3G (no benzyl alcohol), single determination, read-out: Azole solubility, [Drug] mg/mL
[9] = solvent H3G (no benzyl alcohol), read-out: Azole solubility, Average mg/mL
[10] = solvent H3D (no benzyl alcohol), single determination
[11] = solvent H3G (no benzyl alcohol), single determination
[12] = extended mold testing (repeat), H3 final use-formulation, range 75 μg/mL to 0.07 μg/mL, 48 hr
[13] = tested range 75 μg/mL to 0.07 μg/mL, read out at 48 hrs, first experiment
[14] = Aspergillus fumigatus, 48 h, read-out: MIC

MIC [2]	MIC [4]	MIC [5, 12]	MIC [5, 13]	SMILES	solubility at 30 min [1, 6] [mg/mL]	solubility at 30 min [1, 7] [mg/mL]	solubility at 30 min [1, 8] [mg/mL]	solubility at 30 min [1, 9] [mg/mL]	Azole solubility, [Drug] mg/mL [1, 10] [mg/mL]	Azole solubility, [Drug] mg/mL [1, 11] [mg/mL]	MIC (Candida parapsilosis; 24 h, read-out: MIC) [µg/mL]	MIC [3]	MIC (Candida parapsilosis)	MIC ([2]; Candida, ATCC6258, 24 h, read-out: MIC) [µg/mL]	MIC [3, 14] [µg/mL]	MIC ([4]; read-out: MIC) [µg/mL]	MIC ([5]; Aspergillus fumigatus, ATCC90906, 48 h, extended mold testing (repeat), H3 final use-formulation, range 75 μg/mL to 0.07 μg/mL, 48 hr, read-out: MIC) [µg/mL]	MIC ([5]; Aspergillus fumigatus, ATCC90906, 48 h, tested range 75 μg/mL to 0.07 μg/mL, read out at 48 hrs, first experiment, read-out: MIC) [µg/mL]
all grew	all grew	all grew	all grew	OC(Cn1cncn1)(Cn1cncn1)c1ccc(F)cc1F [FZSA, Fluconazole]	38.6 (≈ 126000 µM)	36.1 (≈ 118000 µM)	28.4 (≈ 92700 µM)	30.3 (≈ 98900 µM)	33.5	32.2	1.2 (≈ 3.92 µM)	all grew	–	–	–	–	–	–
–	–	–	–	CC(=O)N1CCN(c2ccc(OCC3COC(Cn4ccnc4)(c4ccc(Cl)cc4Cl)O3)cc2)CC1 (stereo not drawn) [KZSA, Ketoconazole]	15.4 (≈ 29000 µM)	15.3 (≈ 28800 µM)	14.8 (≈ 27800 µM)	14.9 (≈ 28000 µM)	15.2	15.1	0.03 (≈ 0.0565 µM)	–	–	0.15 (≈ 0.282 µM)	20 (≈ 37.6 µM)	38 (≈ 71.5 µM)	10 (≈ 18.8 µM)	20 (≈ 37.6 µM)
all grew (no drug effect)	all grew	all grew (no inhibition)	all grew (no drug effect)	COC(=O)Nc1nc2ccc(C(=O)c3ccccc3)cc2[nH]1 [MBZSA, Mebendazole]	–	–	–	–	–	–	–	–	all grew	–	5 (≈ 16.9 µM)	–	–	–

SMILES	MIC [2]	MIC [4]	MIC [5, 12]	MIC [5, 13]	solubility at 30 min [1, 6] [mg/mL]	solubility at 30 min [1, 7] [mg/mL]	solubility at 30 min [1, 8] [mg/mL]	solubility at 30 min [1, 9] [mg/mL]	Azole solubility, [Drug] mg/mL [1, 10] [mg/mL]	Azole solubility, [Drug] mg/mL [1, 11] [mg/mL]	MIC (Candida parapsilosis; 24 h, read-out: MIC) [µg/mL]	MIC [3]	MIC (Candida parapsilosis)	MIC ([2]; Candida, ATCC6258, 24 h, read-out: MIC) [µg/mL]	MIC [3, 14] [µg/mL]	MIC ([4]; read-out: MIC) [µg/mL]	MIC ([5]; Aspergillus fumigatus, ATCC90906, 48 h, extended mold testing (repeat), H3 final use-formulation, range 75 μg/mL to 0.07 μg/mL, 48 hr, read-out: MIC) [µg/mL]	MIC ([5]; Aspergillus fumigatus, ATCC90906, 48 h, tested range 75 μg/mL to 0.07 μg/mL, read out at 48 hrs, first experiment, read-out: MIC) [µg/mL]
CCC(C)n1ncn(-c2ccc(N3CCN(c4ccc(OCC5COC(Cn6cncn6)(c6ccc(Cl)cc6Cl)O5)cc4)CC3)cc2)c1=O (stereo not drawn) [ITZA(ref 2), itraconazole]	0.3 µg/mL (≈ 0.425 µM)	2.5 µg/mL (≈ 3.54 µM)	0.3 µg/mL (≈ 0.425 µM)	0.6 µg/mL (≈ 0.85 µM)	–	–	–	–	–	–	–	0.3 µg/mL (≈ 0.425 µM)	0.15 µg/mL (≈ 0.213 µM)	–	–	–	–	–
